Measured values: patent publication US9650395B2, “Antibacterial compounds and methods for use” (PTC Therapeutics, Inc., priority 2011, dated 2017)
Converted amounts (≈) assume the structure as drawn.

How the values were obtained:
[1] = system: Gram-positive Staphylococcus aureus (S. aureus) 29213; assay: Antibacterial activity, microbroth dilution MIC, S. aureus 29213; type: cell-based; details: S. aureus 29213, microbroth dilution; for MIC: Staphylococcus aureus, read-out: MIC, 29213
[2] = system: E. coli ELZ4000 (MDR clinical isolate); assay: Antibacterial activity, MIC, MDR E. coli ELZ4000; type: cell-based, Escherichia coli; details: E. coli ELZ4000, MDR clinical isolate; for MIC: Escherichia coli, read-out: MIC ELZ4000
[3] = system: resistant K. pneumoniae MXX1232 (MDR clinical isolate); assay: Antibacterial activity, MIC, resistant K. pneumoniae MXX1232; type: cell-based, Klebsiella pneumoniae; details: Klebsiella pneumoniae; resistant K. pneumoniae MMX1232, MDR clinical isolate; read-out: MIC MMX1232
[4] = system: quinolone resistant E. coli LZ3111; assay: Antibacterial activity, MIC, quinolone resistant E. coli LZ3111; type: cell-based, Escherichia coli; details: for MIC: Escherichia coli, read-out: MIC, LZ3111
From the text: (§1) The antibacterial activity from a microbroth dilution method may be presented as the minimum inhibitory concentration (MIC in […]). The MIC value is the lowest concentration of a drug which prevents macroscopically visible bacterial growth under test conditions.
Mutations in these regions are known to confer a high level resistance to the quinolone class of antibiotics.

[5] = system: super sensitive Gram-negative Escherichia coli (E. coli) BAS849; assay: Antibacterial activity, microbroth dilution MIC, E. coli BAS849; type: cell-based; details: E. coli BAS849, microbroth dilution; for MIC: Escherichia coli, read-out: MIC, BAS849
[6] = system: E. coli ELZ4251 (MDR clinical isolate); assay: Antibacterial activity, MIC, MDR E. coli ELZ4251; type: cell-based, Escherichia coli; details: E. coli ELZ4251, MDR clinical isolate; for MIC: Escherichia coli, read-out: MIC ELZ4251
[7] = system: resistant A. baumannii MXX2240 (MDR clinical isolate); assay: Antibacterial activity, MIC, resistant A. baumannii MXX2240; type: cell-based, Acinetobacter baumannii; details: Acinetobacter baumannii, resistant A. baumannii MMX2240, MDR clinical isolate; read-out: MIC MMX2240
[8] = system: Acinetobacter baumannii (A. baumannii) BAA747; assay: Antibacterial activity, MIC, A. baumannii BAA747; type: cell-based; details: A. baumannii BAA747; for MIC: Acinetobacter baumannii, read-out: MIC BAA747
[9] = system: control Gram-negative E. coli 25922 strain; assay: Antibacterial activity, microbroth dilution MIC, E. coli 25922; type: cell-based, Escherichia coli; details: E. coli 25922, microbroth dilution; for MIC: Escherichia coli, read-out: MIC, 25922
[10] = system: Pseudomonas aeruginosa (P. aeruginosa) 27853; assay: Antibacterial activity, MIC, P. aeruginosa 27853; type: cell-based; details: P. aeruginosa 27853; for MIC: Pseudomonas aeruginosa, read-out: MIC 27853
From the text: as §1
Antibacterial activity of test compounds against the Gram-negative bacterium Pseudomonas aeruginosa (P. aeruginosa) 27853 is shown in Table 5.

[11] = system: Moraxella catarrhalis (M. catarrhalis) 25238; assay: Antibacterial activity, MIC, M. catarrhalis 25238; type: cell-based; details: M. catarrhalis 25238; for MIC: Moraxella catarrhalis, read-out: MIC 25238
[12] = system: Haemophilus influenzae (H. influenzae) 49247; assay: Antibacterial activity, MIC, H. influenzae 49247; type: cell-based; details: H. influenzae 49247; for MIC: Haemophilus influenzae, read-out: MIC 49247
Procedure, shortened: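 Antibacterial activity against the Gram-negative organism Haemophilus influenzae strain 49247 was measured by microbroth dilution. The minimum inhibitory concentration (MIC) was taken as the lowest drug concentration that stopped bacterial growth from being visible to the naked eye under the test conditions.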

[13] = system: Neisseria meningitidis (N. meningitidis) 13090; assay: Antibacterial activity, MIC, N. meningitidis 13090; type: cell-based; details: N. meningitidis 13090; for MIC: Neisseria meningitidis, read-out: MIC 13090
[14] = system: Klebsiella pneumoniae (K. pneumoniae) 35657; assay: Antibacterial activity, MIC, K. pneumoniae 35657; type: cell-based; details: for MIC: Klebsiella pneumoniae

| SMILES | MIC [1] [µg/mL] | MIC [2] [µg/mL] | MIC [3] [µg/mL] | MIC [4] [µg/mL] | MIC [5] [µg/mL] | MIC [6] [µg/mL] | MIC [7] [µg/mL] | MIC [8] [µg/mL] | MIC [9] [µg/mL] | MIC [10] [µg/mL] | MIC [11] [µg/mL] | MIC [12] [µg/mL] | MIC [13] [µg/mL] | MIC [14] [µg/mL] | also measured |
| --- | --- | --- | --- | --- | --- | --- | --- | --- | --- | --- | --- | --- | --- | --- | --- |
| CCc1c(-c2ccc(OC)cc2)[nH]c(=O)c(C(=O)O)c1O [Cpd 25, 5-ethyl-4-hydroxy-6-(4-methoxyphenyl)-2-oxo-1,2-dihydropyridine-3-carboxylic acid] | 12.5 to 150 (≈ 43.2 to 519 µM) | 12.5 to 150 (≈ 43.2 to 519 µM) | 12.5 to 150 (≈ 43.2 to 519 µM) | 12.5 to 150 (≈ 43.2 to 519 µM) | < 1 | 12.5 to 150 (≈ 43.2 to 519 µM) | 1 to 3.5 (≈ 3.46 to 12.1 µM) | 3.5 to 12.5 (≈ 12.1 to 43.2 µM) | 3.5 to 12.5 (≈ 12.1 to 43.2 µM) | – | – | – | – | – | – |
| CCc1cc(C(=O)O)c(=O)[nH]c1-c1ccc(N(C)C)c(F)c1 [Cpd 93, 6-[4-(dimethylamino)-3-fluorophenyl]-5-ethyl-2-oxo-1,2-dihydropyridine-3-carboxylic acid] | 12.5 to 150 (≈ 41.1 to 493 µM) | 12.5 to 150 (≈ 41.1 to 493 µM) | – | 12.5 to 150 (≈ 41.1 to 493 µM) | < 1 | 12.5 to 150 (≈ 41.1 to 493 µM) | – | 12.5 to 150 (≈ 41.1 to 493 µM) | 12.5 to 150 (≈ 41.1 to 493 µM) | 12.5 to 150 (≈ 41.1 to 493 µM) | < 1 | < 1 | < 1 | 12.5 to 150 (≈ 41.1 to 493 µM) | – |
| CCc1c(-c2ccc(N(C)C)c(F)c2)[nH]c(=O)c(C(=O)O)c1O [Cpd 94, 6-[4-(dimethylamino)-3-fluorophenyl]-5-ethyl-4-hydroxy-2-oxo-1,2-dihydropyridine-3-carboxylic acid] | 12.5 to 150 (≈ 39 to 468 µM) | 12.5 to 150 (≈ 39 to 468 µM) | – | 12.5 to 150 (≈ 39 to 468 µM) | < 1 | 12.5 to 150 (≈ 39 to 468 µM) | – | 12.5 to 150 (≈ 39 to 468 µM) | 12.5 to 150 (≈ 39 to 468 µM) | 12.5 to 150 (≈ 39 to 468 µM) | < 1 | < 1 | < 1 | 12.5 to 150 (≈ 39 to 468 µM) | – |
| CCc1c(-c2ccc(N3CC[C@@H](O)C3)cc2)[nH]c(=O)c(C(=O)O)c1O [Cpd 124, 5-ethyl-4-hydroxy-6-{4-[(3R)-3-hydroxypyrrolidin-1-yl]phenyl}-2-oxo-1,2-dihydropyridine-3-carboxylic acid] | 1 to 3.5 (≈ 2.9 to 10.2 µM) | 12.5 to 150 (≈ 36.3 to 436 µM) | 12.5 to 150 (≈ 36.3 to 436 µM) | 12.5 to 150 (≈ 36.3 to 436 µM) | < 1 | 12.5 to 150 (≈ 36.3 to 436 µM) | 12.5 to 150 (≈ 36.3 to 436 µM) | < 1 | < 1 | – | < 1 | < 1 | < 1 | – | – |
| CCc1c(-c2ccc(N3CCC(O)C3)cc2)[nH]c(=O)c(C(=O)O)c1O (stereo not shown) [Cpd 126, 5-ethyl-4-hydroxy-6-[4-(3-hydroxypyrrolidin-1-yl)phenyl]-2-oxo-1,2-dihydropyridine-3-carboxylic acid] | 1 to 3.5 (≈ 2.9 to 10.2 µM) | 12.5 to 150 (≈ 36.3 to 436 µM) | 12.5 to 150 (≈ 36.3 to 436 µM) | 12.5 to 150 (≈ 36.3 to 436 µM) | < 1 | 12.5 to 150 (≈ 36.3 to 436 µM) | 12.5 to 150 (≈ 36.3 to 436 µM) | < 1 | < 1 | 3.5 to 12.5 (≈ 10.2 to 36.3 µM) | < 1 | < 1 | < 1 | – | – |
| CN[C@@H]1CCC[C@@H]2CN(c3ccc(-c4[nH]c(=O)c(C(=O)O)c(O)c4C)cc3)C[C@@H]21.Cl [Cpd 260, 4-hydroxy-5-methyl-6-{4-[(3aR,4R,7aS)-4-(methylamino)octahydro-2H-isoiridol-2-yl]phenyl}-2-oxo-1,2-dihydropyridine-3-carboxylic acid hydrochloride] | – | – | – | – | – | – | – | – | – | – | – | – | – | – | MIC, 29213 [1]: *** (an MIC value between >1.0 μg/mL and ≦3.5 μg/mL is indicated by three stars (***)); MIC 27853 [10]: * (an MIC value between >12.5 μg/mL and ≦150 μg/mL is indicated by a single star (*)); MIC 25238 [11]: ** (an MIC value between >3.5 μg/mL and ≦12.5 μg/mL is indicated by two stars (**)); MIC ELZ4000 [2]: ** (an MIC value between >3.5 μg/mL and ≦12.5 μg/mL is indicated by two stars (**)); MIC, LZ3111 ([4]; quinolone resistant E. coli LZ3111): **** (an MIC value of ≦1.0 μg/mL is indicated by four stars (****)); MIC 49247 [12]: * (an MIC value between >12.5 μg/mL and ≦150 μg/mL is indicated by a single star (*)); MIC, BAS849 [5]: ** (an MIC value between >3.5 μg/mL and ≦12.5 μg/mL is indicated by two stars (**)); MIC ELZ4251 [6]: *** (an MIC value between >1.0 μg/mL and ≦3.5 μg/mL is indicated by three stars (***)); MIC 13090 [13]: *** (an MIC value between >1.0 μg/mL and ≦3.5 μg/mL is indicated by three stars (***)); MIC BAA747 [8]: * (an MIC value between >12.5 μg/mL and ≦150 μg/mL is indicated by a single star (*)); MIC, 25922 [9]: ** (an MIC value between >3.5 μg/mL and ≦12.5 μg/mL is indicated by two stars (**)); MIC 35657 [14]: ** (an MIC value between >3.5 μg/mL and ≦12.5 μg/mL is indicated by two stars (**)) |
